# Paper PMC9898036, “VIP152 is a selective CDK9 inhibitor with pre-clinical in vitro and in vivo efficacy in chronic lymphocytic leukemia” (Leukemia, 2022)
# Residue numbers refer to the chain shown, from its start. Like-named read-outs stand apart in the source and are kept apart here.
# How the values were obtained:
# TAOK2 = TAOK2 (Homo sapiens, UniProt Q9UL54); assay: KINOMEscan: TAOK2; format: binding; conditions: 100 nM, read-out: Percent Control
# [1] = target: RSK4(Kin.Dom.2-C-terminal) (Homo sapiens, UniProt Q9UK32); assay: KINOMEscan: RSK4(Kin.Dom.2-C-terminal); format: binding; conditions: 100 nM, read-out: Percent Control
# KIT-autoinhibited = KIT-autoinhibited (Homo sapiens, UniProt P10721); assay: KINOMEscan: KIT-autoinhibited; format: binding; conditions: 1000 nM, read-out: Percent Control
# AKT3 = AKT3 (Homo sapiens, UniProt Q9Y243); assay: KINOMEscan: AKT3; format: binding; conditions: 1000 nM, read-out: Percent Control
# [2] = set-up: method as in PMID 35046056; conditions: human, cited from earlier work
# [3] = target: TYK2(JH1domain-catalytic) (Homo sapiens, UniProt P29597); assay: KINOMEscan: TYK2(JH1domain-catalytic); format: binding; conditions: 100 nM, read-out: Percent Control
# Nicotinic Acetylcholine = assay: Eurofins Diversity Panel; format: binding, human; conditions: hum, Conc. 10 μM
# ABL1 [4] = target: T1, ABL1 (Homo sapiens, UniProt P00519, F317I); assay: KINOMEscan: ABL1; format: binding; conditions: read-out: Percent Control; for remaining binding at 0.1 µM: 100 nM; for remaining binding at 1 µM: 1000 nM
# T1 sequence (P00519 229-512 F317I): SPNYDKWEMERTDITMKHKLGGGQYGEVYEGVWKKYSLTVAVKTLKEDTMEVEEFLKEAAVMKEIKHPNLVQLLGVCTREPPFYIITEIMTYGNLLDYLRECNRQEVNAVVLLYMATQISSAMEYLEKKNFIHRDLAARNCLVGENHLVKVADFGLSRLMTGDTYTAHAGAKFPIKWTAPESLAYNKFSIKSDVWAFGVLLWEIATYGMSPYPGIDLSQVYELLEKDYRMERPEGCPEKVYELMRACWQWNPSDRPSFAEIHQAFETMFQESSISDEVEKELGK
# Protocol: (§1) The structure and synthesis of VIP152 were recently described by Lücking et al.. (Fig. 1A); however, the selectivity of the molecule in cellular systems has yet to be explored. […] We also performed this experiment at 1000 nM, where CDK9 was inhibited at 99%. […] We found a strong concordance between our data and those of Lücking when comparing the most inhibited kinases. Potential off-target effects of VIP152 were next tested in vitro at a concentration of 10 µM for off-target activity against a broad range of receptors, transporters, ion channels, and enzymes (n = 138) using the Eurofins Diversity Panel.
# (§2) Kinomescan Kinase Profiling Assay
# (§3) Kinomescan Assay was performed at DiscoverRX and described in Fabian, et al. 2005, Nat.
# (§4) Biotechnol. In brief, kinases were produced and subsequently tagged with DNA for qPCR detection.
# (§5) Streptavidin-coated magnetic beads were bound to biotinylated kinase ligands to serve as a solid support.
# (§6) VIP152 was dissolved in DMSO and tested across a 10 serial threefold dilution set and compared to a test compound and a DMSO control. Kinases which were inhibited by VIP152 would not be bound to the solid-support resulting in decreased substrate for the qPCR reaction. Kinome map was produced via TreeSpot Analysis from DiscoverRX. […]
# ABL1 [5] = target: T2, ABL1 (Homo sapiens, UniProt P00519, F317L); assay: KINOMEscan: ABL1; format: binding; conditions: read-out: Percent Control; for remaining binding at 0.1 µM: 100 nM; for remaining binding at 1 µM: 1000 nM
# T2 sequence (P00519 229-512 F317L): T1 sequence (P00519 229-512 F317I) with I89L
# Protocol: as §1, §2, §3, §4, §5, §6
# ABL1 [6] = target: ABL1 (Homo sapiens, UniProt P00519); assay: KINOMEscan: ABL1; format: binding; conditions: read-out: Percent Control; for remaining binding at 0.1 µM: 100 nM; for remaining binding at 1 µM: 1000 nM
# Protocol: as §1, §2, §3, §4, §5, §6
# ABL1 [7] = target: ABL1 (Homo sapiens, UniProt P00519, E255K); assay: KINOMEscan: ABL1; format: binding; conditions: ABL1(E255K)-phosphorylated, read-out: Percent Control
# Protocol: as §1, §2, §3, §4, §5, §6
# ABL1 [8] = target: ABL1 (Homo sapiens, UniProt P00519, Y253F); assay: KINOMEscan: ABL1; format: binding; conditions: ABL1(Y253F)-phosphorylated, read-out: Percent Control
# Protocol: as §1, §2, §3, §4, §5, §6
# ABL1 [9] = target: ABL1 (Homo sapiens, UniProt P00519, M351T); assay: KINOMEscan: ABL1; format: binding; conditions: ABL1(M351T)-phosphorylated, read-out: Percent Control
# Protocol: as §1, §2, §3, §4, §5, §6
# ABL1 [10] = target: T3, ABL1 (Homo sapiens, UniProt P00519, T315I); assay: KINOMEscan: ABL1; format: binding; conditions: read-out: Percent Control; for remaining binding at 0.1 µM: 100 nM; for remaining binding at 1 µM: 1000 nM
# T3 sequence (P00519 229-512 T315I): T1 sequence (P00519 229-512 F317I) with T87I, I89F
# Protocol: as §1, §2, §3, §4, §5, §6
# ABL1 [11] = assay: KINOMEscan: ABL1; format: binding, human; conditions: 1000 nM
# Protocol: as §1, §2, §3, §4, §5, §6
# RET(V804L) = RET(V804L) (Homo sapiens, UniProt P07949, V804L); assay: KINOMEscan: RET(V804L); format: binding; conditions: 100 nM, read-out: Percent Control
# RET(V804L), sequence (P07949 29-1114 V804L): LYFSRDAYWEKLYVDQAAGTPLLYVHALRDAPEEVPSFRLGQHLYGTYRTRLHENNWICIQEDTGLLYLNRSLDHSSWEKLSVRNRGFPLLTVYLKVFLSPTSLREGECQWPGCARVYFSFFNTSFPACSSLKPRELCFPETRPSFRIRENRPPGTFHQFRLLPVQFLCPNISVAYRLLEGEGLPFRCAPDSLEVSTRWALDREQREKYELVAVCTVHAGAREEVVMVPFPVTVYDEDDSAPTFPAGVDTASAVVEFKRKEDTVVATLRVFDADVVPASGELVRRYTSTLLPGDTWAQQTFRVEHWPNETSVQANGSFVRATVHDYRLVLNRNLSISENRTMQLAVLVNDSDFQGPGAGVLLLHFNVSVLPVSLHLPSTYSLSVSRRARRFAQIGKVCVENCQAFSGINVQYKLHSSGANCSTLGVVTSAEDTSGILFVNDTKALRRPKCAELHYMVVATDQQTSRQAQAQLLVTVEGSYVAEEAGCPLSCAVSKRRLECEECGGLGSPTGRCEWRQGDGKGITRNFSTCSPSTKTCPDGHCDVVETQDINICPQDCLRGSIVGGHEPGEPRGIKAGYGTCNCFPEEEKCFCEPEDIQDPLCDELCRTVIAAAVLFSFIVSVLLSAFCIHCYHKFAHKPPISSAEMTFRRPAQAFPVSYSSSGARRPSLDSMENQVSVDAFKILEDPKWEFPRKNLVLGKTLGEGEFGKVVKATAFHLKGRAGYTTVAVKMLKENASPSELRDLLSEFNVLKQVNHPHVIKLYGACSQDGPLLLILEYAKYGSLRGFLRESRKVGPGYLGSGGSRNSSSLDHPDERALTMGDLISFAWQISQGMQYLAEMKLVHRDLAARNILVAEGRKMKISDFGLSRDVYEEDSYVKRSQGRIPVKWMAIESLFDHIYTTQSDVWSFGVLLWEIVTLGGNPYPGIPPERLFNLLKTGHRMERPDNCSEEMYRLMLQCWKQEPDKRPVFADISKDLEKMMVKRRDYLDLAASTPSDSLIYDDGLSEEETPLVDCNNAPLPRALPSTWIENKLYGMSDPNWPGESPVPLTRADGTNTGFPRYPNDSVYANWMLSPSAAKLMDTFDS
# KIT-autoinhibited, sequence (P10721 26-976): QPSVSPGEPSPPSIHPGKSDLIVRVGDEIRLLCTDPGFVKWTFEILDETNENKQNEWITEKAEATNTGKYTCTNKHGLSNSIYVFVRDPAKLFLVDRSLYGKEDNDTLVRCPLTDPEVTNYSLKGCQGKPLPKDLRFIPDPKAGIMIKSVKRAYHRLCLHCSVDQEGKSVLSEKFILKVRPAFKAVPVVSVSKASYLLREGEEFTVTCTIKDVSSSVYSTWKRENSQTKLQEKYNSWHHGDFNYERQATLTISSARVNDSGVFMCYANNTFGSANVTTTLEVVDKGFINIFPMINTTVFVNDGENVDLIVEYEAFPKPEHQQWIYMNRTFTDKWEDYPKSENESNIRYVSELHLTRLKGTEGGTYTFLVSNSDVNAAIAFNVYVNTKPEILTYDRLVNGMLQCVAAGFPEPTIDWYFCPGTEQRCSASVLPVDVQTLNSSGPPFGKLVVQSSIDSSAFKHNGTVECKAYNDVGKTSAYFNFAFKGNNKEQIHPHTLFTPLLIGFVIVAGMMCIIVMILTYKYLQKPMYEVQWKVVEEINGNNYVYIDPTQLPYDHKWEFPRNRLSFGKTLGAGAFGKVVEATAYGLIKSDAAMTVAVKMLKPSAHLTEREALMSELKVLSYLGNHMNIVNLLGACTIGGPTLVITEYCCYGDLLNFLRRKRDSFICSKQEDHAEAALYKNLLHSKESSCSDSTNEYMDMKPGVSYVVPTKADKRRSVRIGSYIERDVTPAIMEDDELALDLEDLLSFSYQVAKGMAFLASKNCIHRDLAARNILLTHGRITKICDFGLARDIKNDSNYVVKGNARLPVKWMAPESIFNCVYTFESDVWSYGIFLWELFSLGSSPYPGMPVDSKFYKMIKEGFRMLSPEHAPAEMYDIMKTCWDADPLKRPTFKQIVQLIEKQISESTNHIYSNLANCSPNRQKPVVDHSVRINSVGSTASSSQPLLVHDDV
# AKT3, sequence (Q9Y243 whole entry): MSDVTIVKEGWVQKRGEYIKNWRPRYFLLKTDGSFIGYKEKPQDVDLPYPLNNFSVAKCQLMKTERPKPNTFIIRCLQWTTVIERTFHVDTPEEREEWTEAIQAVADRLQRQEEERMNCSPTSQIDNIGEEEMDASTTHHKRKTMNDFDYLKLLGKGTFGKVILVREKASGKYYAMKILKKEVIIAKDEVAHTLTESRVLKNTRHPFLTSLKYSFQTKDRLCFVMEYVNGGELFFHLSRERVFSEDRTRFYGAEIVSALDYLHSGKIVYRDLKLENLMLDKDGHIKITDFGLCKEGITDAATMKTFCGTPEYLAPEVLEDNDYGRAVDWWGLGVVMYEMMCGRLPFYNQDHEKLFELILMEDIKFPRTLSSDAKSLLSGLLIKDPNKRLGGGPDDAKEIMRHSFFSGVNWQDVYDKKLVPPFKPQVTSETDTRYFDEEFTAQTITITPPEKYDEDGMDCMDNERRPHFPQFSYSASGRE
# RSK4(Kin.Dom.2-C-terminal), sequence (Q9UK32 401-745 limits assumed): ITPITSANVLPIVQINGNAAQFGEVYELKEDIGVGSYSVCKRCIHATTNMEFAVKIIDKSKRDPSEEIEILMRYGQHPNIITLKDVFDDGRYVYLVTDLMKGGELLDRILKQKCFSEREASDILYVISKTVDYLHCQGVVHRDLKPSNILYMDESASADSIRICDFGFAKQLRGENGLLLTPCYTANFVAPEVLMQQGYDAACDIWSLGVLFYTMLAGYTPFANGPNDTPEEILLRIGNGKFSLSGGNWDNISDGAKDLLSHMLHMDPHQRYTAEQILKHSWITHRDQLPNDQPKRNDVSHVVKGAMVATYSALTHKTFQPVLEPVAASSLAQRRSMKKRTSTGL
# TAOK2, sequence (Q9UL54 whole entry): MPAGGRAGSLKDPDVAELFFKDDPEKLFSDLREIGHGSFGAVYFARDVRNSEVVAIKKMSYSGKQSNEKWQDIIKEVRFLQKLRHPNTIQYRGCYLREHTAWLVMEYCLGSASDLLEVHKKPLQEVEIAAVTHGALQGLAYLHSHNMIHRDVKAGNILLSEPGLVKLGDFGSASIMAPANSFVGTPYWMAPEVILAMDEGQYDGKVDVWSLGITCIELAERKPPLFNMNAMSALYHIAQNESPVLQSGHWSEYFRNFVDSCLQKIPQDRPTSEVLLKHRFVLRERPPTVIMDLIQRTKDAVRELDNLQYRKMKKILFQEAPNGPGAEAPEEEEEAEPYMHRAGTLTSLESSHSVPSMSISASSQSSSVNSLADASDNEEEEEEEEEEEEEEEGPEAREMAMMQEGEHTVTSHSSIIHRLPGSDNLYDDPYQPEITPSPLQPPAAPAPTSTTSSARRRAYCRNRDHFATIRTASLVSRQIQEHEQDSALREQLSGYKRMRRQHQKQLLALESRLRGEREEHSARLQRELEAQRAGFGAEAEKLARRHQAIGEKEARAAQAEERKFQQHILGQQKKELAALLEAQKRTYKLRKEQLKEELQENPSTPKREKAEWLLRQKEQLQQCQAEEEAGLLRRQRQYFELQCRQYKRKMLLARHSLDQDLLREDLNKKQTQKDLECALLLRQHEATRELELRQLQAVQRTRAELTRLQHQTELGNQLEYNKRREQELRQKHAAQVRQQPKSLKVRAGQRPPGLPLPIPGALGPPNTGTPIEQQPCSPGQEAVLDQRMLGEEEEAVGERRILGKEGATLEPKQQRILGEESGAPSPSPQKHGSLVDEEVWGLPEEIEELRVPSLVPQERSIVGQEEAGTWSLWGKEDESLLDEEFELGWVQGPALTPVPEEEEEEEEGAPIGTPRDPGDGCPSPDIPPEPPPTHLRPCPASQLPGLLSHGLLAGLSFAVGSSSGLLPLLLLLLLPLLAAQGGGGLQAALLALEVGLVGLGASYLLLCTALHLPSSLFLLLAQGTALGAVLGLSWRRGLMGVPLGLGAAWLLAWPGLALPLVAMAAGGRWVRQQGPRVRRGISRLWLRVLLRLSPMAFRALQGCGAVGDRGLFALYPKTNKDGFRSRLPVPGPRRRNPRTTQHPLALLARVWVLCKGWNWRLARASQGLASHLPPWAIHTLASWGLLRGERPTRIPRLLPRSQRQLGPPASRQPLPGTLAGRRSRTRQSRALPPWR
# TYK2(JH1domain-catalytic), sequence (P29597 875-1187 limits assumed): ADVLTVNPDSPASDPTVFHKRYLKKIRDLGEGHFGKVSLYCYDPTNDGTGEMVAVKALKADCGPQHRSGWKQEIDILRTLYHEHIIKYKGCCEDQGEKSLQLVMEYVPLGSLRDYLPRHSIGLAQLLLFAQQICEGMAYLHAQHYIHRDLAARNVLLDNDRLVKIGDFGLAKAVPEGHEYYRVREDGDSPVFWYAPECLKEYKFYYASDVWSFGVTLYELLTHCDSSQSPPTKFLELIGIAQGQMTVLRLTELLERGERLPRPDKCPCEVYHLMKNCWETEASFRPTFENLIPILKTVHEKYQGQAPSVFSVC
compound,measurement,setting,value
COc1cc(F)ccc1-c1cc(Nc2cc(CS(C)(=N)=O)ccn2)ncc1F (centres unmarked) [VIP152],remaining binding at 0.1 µM,TAOK2,92%
same,remaining binding at 0.1 µM,[1],100%
same,remaining binding at 1 µM,KIT-autoinhibited,100%
same,remaining binding at 1 µM,AKT3,98%
same,Cmax,[2],836 µg/L
same,Cmax,"[2]; read-out: Cmax, corresponding concentration",2000 nM
same,remaining binding at 0.1 µM,[3],100%
same,% Inh.,Nicotinic Acetylcholine,-9%
same,remaining binding at 0.1 µM,ABL1 [4]; ABL1(F317I)-nonphosphorylated,100%
same,remaining binding at 1 µM,ABL1 [4]; ABL1(F317I)-nonphosphorylated,84%
same,remaining binding at 0.1 µM,ABL1 [4]; ABL1(F317I)-phosphorylated,95%
same,remaining binding at 1 µM,ABL1 [4]; ABL1(F317I)-phosphorylated,33%
same,remaining binding at 0.1 µM,ABL1 [5]; ABL1(F317L)-nonphosphorylated,100%
same,remaining binding at 1 µM,ABL1 [5]; ABL1(F317L)-nonphosphorylated,52%
same,remaining binding at 0.1 µM,ABL1 [5]; ABL1(F317L)-phosphorylated,95%
same,remaining binding at 1 µM,ABL1 [5]; ABL1(F317L)-phosphorylated,56%
same,remaining binding at 0.1 µM,ABL1 [6]; ABL1-nonphosphorylated,64%
same,remaining binding at 1 µM,ABL1 [6]; ABL1-nonphosphorylated,21%
same,remaining binding at 0.1 µM,ABL1 [6]; ABL1-phosphorylated,73%
same,remaining binding at 1 µM,ABL1 [6]; ABL1-phosphorylated,54%
same,remaining binding at 0.1 µM,ABL1 [7]; 100 nM,83%
same,remaining binding at 1 µM,ABL1 [7]; 1000 nM,48%
same,remaining binding at 0.1 µM,ABL1 [8]; 100 nM,100%
same,remaining binding at 1 µM,ABL1 [8]; 1000 nM,45%
same,remaining binding at 0.1 µM,ABL1 [9]; 100 nM,86%
same,remaining binding at 1 µM,ABL1 [9]; 1000 nM,43%
same,remaining binding at 0.1 µM,ABL1 [10]; ABL1(T315I)-nonphosphorylated,96%
same,remaining binding at 1 µM,ABL1 [10]; ABL1(T315I)-nonphosphorylated,3.2%
same,remaining binding at 0.1 µM,ABL1 [10]; ABL1(T315I)-phosphorylated,95%
same,remaining binding at 1 µM,ABL1 [10]; ABL1(T315I)-phosphorylated,53%
same,inhibition of ABL1,ABL1 [11],96.8%
same,remaining binding at 0.1 µM,RET(V804L),100%
